According to PMC10619691, “Effect of cyclic substituents on the anti-cancer activity and DNA interaction of ruthenium(II) bis-phenanthroline dipyridoquinoline” (Frontiers in Molecular Biosciences, 2023):

Legend:
CT-DNA = experiment: viscometry of DNA with bound complex; format: binding, calf; conditions: 25°C
Source text: This reduction reflects increased flexibility of the DNA due to electrostatic and steric factors, which is consistent with the LD results for POW-12A but can also occur if the DNA becomes kinked or bent upon binding a small molecule.
An uncalibrated Cannon-Manning extra-low charge semi-micro viscometer (size 75) was used to measure the relative intrinsic viscosity of dilute DNA solutions, according to the manufacturer’s instructions (Cannon Instrument Company) and as described previously ([MoradpourHafshejani et al., 2013]). The viscometer was immersed in a water bath thermostated at 25°C. The DNA concentration and viscometer volume ([…]) were kept constant for a series of added dye concentrations. The flow time for water was ∼177 s, and that for DNA solutions was >245 s. Measurements were carried out in triplicate and provided standard deviations of <±1 s. The flow times are related to the relative intrinsic viscosity according to Eq. 1, where [η] is the intrinsic viscosity in the presence of dye and [η]0 is the intrinsic viscosity of free DNA. t0, td, and tx represent the flow times for buffer only, naked DNA, and dye-bound DNA, respectively. […] If the persistence length is reduced or the DNA is bent (dynamically or statically), the slope will be lowered. tx−tt/td−tt3=η/η03=L/L0=1+αr. (1)

HS DNA = experiment: DNA binding by fluorescence (emission) titration; design: species or system herring; conditions: for binding constant / binding site size: emission titrations; for n′ (binding site size): titrating concentrated HS DNA into 5 μM solutions of ruthenium complex, direct fitting
Source text: VNK-754 is a structural analog of [Ru(phen)2dpq]^2+, a complex that intercalates the dpq (dpq = dipyrido[3,2-f:2′,3′-h]quinoxaline) ligand from the minor groove ([Greguric et al., 1997]). The dpq ligand presents a sufficiently large planar surface to allow classical intercalation, and it might be expected that extending the surface with substituents would enhance such binding. However, while this is observed with the addition of aromatic rings, as in the case of [Ru(phen)2dppz]^2+, this may not be true for the addition of a saturated ring that distorts the planarity of the extended ring system (Figure 6). Studies were thus undertaken to establish the binding modes of POW-12A and VNK-572. All complexes bound strongly to DNA, and binding constants and binding site sizes were determined from emission titrations to be 1.91 × 10^6 M^–1 and 0.38 Ru/base for POW-12A, and 1.46 × 10^6 M^–1 and 0.24 Ru/base for VNK-572 (Table 3). […] The smallest binding site size a pure intercalator can have is four bases. The binding site size of POW-12A is smaller than four bases; this is not consistent with binding via pure intercalation.
PBS buffer was prepared with NaCl (137 mM), KCl (2.70 mM), Na2HPO4 (10.1 mM), and KH2PO4 (1.77 mM) in nanopure water. Using HCl, the pH was adjusted to 7.40. PBS buffer was used for all photophysical experiments. For linear dichroism experiments, a PBS buffer without potassium was used. Solutions of open-circle and supercoiled φX174 DNA were obtained from New England Biolabs. Sodium salts of high-molecular-weight herring sperm (HS-DNA) and calf thymus (CT-DNA) from Sigma were dissolved in PBS buffer, and concentrations were determined spectrophotometrically using the extinction coefficient ε260 nm = 6600 M^−1 cm^−1 for nucleobase concentration. The alternating polynucleotide polydeoxyadenylic-thymidylic acid ([poly(dA-dT)]2) and polydeoxyguanylic-cytidylic acid ([poly(dG-dC)]2) from NUNABIO ([Whitfield et al., 2015]) were dissolved in PBS buffer, and their concentrations were determined using the extinction coefficients ε262 nm = 6700 M^−1 cm^−1 and ε254 nm = 8400 M^−1 cm^−1, respectively. Direct fitting to raw data from fluorescence titration experiments (titrating concentrated HS DNA into 5 μM solutions of ruthenium complex) was used to give the binding constant (KB) and binding site size (n′). The following equation is derived from the Scatchard equation: ∝^2∙KB/PD−KB/PD+1/PDDt+KB∙n^′+KB∙n^′ = 0, where Db/Dt=I−I0/I∞−I0 , PD is the phosphate: dye ratio, KB is the binding constant (M^−1), and n′ is the binding site size (bases per compound). The equation is in the form of a quadratic equation, where a = KB[Dt]/PD, b = −(KB/PD+1/PD[Dt ] +KB∙n′), and c = KBn′. The positive solution to this quadratic equation gives values for α, from which theoretical intensities at each PD are calculated. The least squares regression method was used, minimizing the squared residuals of the theoretical and experimental intensities and floating the values of KB, I0, I∞, and n′.

A2780 ovarian cancer = experiment: sulphorhodamine B (SRB) cytotoxicity assay; format: cell-based, human; conditions: for IC50: SRB assay, 72 h incubation, mean ± SEM
Experimental: (§1) The cytotoxicity profile of the ruthenium complexes […]-572, and POW-12A was assessed in various cancer cell lines, namely, human cervical cancer HeLa, prostate cancer cell line DU145, breast cancer cell line MDAMB231MB231, ovarian cancer cell line A2780, and cisplatin-resistant ovarian cancer cell line A2780-CP70, using the preferred screen of the National Cancer Institute, the sulphorhodamine (SRB) dye assay, and the trypan blue cell viability assay ([Skehan et al., 1990]; [Houghton et al., 2007]; [Strober, 2001]). To determine their selective toxicity profile, these complexes were also tested in a normal prostate cell line (PTN1A). From the similarity in chemical structures of the compounds, we deduced that a structure-activity relationship study will help elucidate key properties involved in the cytotoxic activity of this class of metal complexes. The sulphorhodamine B (SRB) assay was used to evaluate the cytotoxicity of each cancer line after treating them with the metal complexes in line with the previously established protocol ([Skehan et al., 1990]). A cell density of 3 × 10^4 cells/mL was treated with various concentrations (3, 10, 30, 50, and 100 μM) of each ruthenium complex by 1:200 dilutions of stock solutions (in DMSO) in culture media, using DMSO as a control. Then, 100 μL of the cell-drug suspension was added to the respective wells of a 96-well plate and incubated at 37°C for 72 h in a CO2-containing incubator. Following this, the cells were fixed using 25 ul of Carnoy's solution and left in the fridge (4°C) for 1 h. The plates were then rinsed with running water and tapped on paper to remove dead cells. The cells were then stained with 100 μL of sulphorhodamine B dye and left for 30 min, after which the dye was washed off using 1% acetic acid, and the plate was left to dry in the oven (60°C). The stained cells were then treated with 100 μL of Tris base (10 mM, pH 10) to solubilize the dye stain. Finally, the plates were analyzed using an Omega plate reader. Each assay was conducted in triplicate. % Cell response=Average of treated cells / Average of control cells x 100.

HeLa cervical cancer = experiment: sulphorhodamine B (SRB) cytotoxicity assay; format: cell-based, human; conditions: 72 h incubation, mean ± SEM
Experimental: as §1

DU145 prostate cancer = experiment: sulphorhodamine B (SRB) cytotoxicity assay; format: cell-based, human; conditions: 72 h incubation, mean ± SEM
Experimental: as §1

MDA-MB-231 (TNBC) = experiment: sulphorhodamine B (SRB) cytotoxicity assay; format: cell-based, human; conditions: 72 h incubation, mean ± SEM
Experimental: as §1

[1] = test system: A280-CP70 cisplatin-resistant ovarian cancer; experiment: sulphorhodamine B (SRB) cytotoxicity assay; format: cell-based, human; conditions: SRB assay, 72 h incubation; mean ± SEM
Experimental: as §1

binding constant (HS DNA)	binding site size (HS DNA) [Ru/base]	n′ (binding site size) (HS DNA) [bases per compound]	SMILES	effect on DNA viscosity / length (CT-DNA)	IC50 (A2780 ovarian cancer) [µM]	IC50 (HeLa cervical cancer) [µM]	IC50 (DU145 prostate cancer) [µM]	IC50 (MDA-MB-231 (TNBC)) [µM]	IC50 [1] [µM]	fold difference between the anti-cancer activities of VNK-754 and VNK-572 (A2780 ovarian cancer; more susceptible cancer cell lines (A2780 and DU145))
1.91 × 10^6 M^–1	0.38	2.63	F[P-](F)(F)(F)(F)F.F[P-](F)(F)(F)(F)F.[Ru+2].c1cnc2c(c1)c1ncc3c(c1c1cccnc12)CCC3.c1cnc2c(c1)ccc1cccnc12.c1cnc2c(c1)ccc1cccnc12 [POW-12A]	reduces the viscosity of DNA	12 ± 1.73	63 ± 6.35	35 ± 6.93	> 100	35 ± 3.47	–
1.46 × 10^6 M^–1	0.24	4.16	F[P-](F)(F)(F)(F)F.F[P-](F)(F)(F)(F)F.[Ru+2].c1cnc2c(c1)c1ncc3c(c1c1cccnc12)CCCC3.c1cnc2c(c1)ccc1cccnc12.c1cnc2c(c1)ccc1cccnc12 [VNK-572]	elongates DNA	10 ± 4.04	52 ± 6.35	19 ± 2.31	> 100	15 ± 2.89	seven-fold
